Laboratory results from publication PMC7531004, “Discovery of gramicidin A analogues with altered activities by multidimensional screening of a one-bead-one-compound library” (Nature Communications, 2020).
Where a SMILES comes first, the peptide text is derived from it. [ ]: non-standard residue; d: D form. The star is where a group is joined. NHCH2CH2OH = OCCN*; For = O=C*

Key:
[1] = test system: P388 mouse leukemia cells; conditions: 92 h
Method in brief: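 Peptide stocks diluted 250× in growth medium; P388 cells 1 × 10^4 cells/mL final; 37 °C, 5% CO2, 92 h. WST-1 + 1-methoxy PMS, 4 h, A415. Output: % viability.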

[2] = test system: Streptococcus pyogenes SSI-9; assay: Antibacterial activity assay of bead-derived peptides (three concentrations); assay type: cell-based; design: key: +++: inhibition by the 640-fold diluted peptide solution; ++: inhibition by the 160-fold diluted solution; +: inhibition by the 40-fold diluted solution; -: no inhibition; conditions: S. pyogenes, bead-derived peptide solution, three concentrations
Method in brief: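 Growth inhibition scored visually as precipitated bacteria after 37 °C, 18 h incubation. Streptococcus pyogenes SSI-9 inoculum of 2 × 10^5 CFU in Ca2+/Mg2+-adjusted Mueller Hinton broth plus 5% laked horse blood; peptides tested at three levels: stock, 4-fold and 16-fold DMSO dilutions.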

[3] = H+/Na+ transport assay of bead-derived peptides (one-point); assay type: biochemical; design: key: relative activity; mean of two control wells = 1.00; conditions: bead-derived peptide solution, EYPC/EYPG LUVs;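 further: relative to parent gramicidin A activity set to 1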
Method in brief: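 One-point screen: peptide + pyranine-loaded LUVs, 30 min RT with vortexing, 96-well. Read-out is fluorescence intensity scaled as 100 × (Ix – I0)/(Imax – I0). Imax from Triton X-100, I0 from untreated vesicles, and the mean of the two control wells is set to 1.00.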

| Compound | cell viability/% [1] [%] | antibacterial activity [2] | H+/Na+ transport activity normalized against the value of 1 (1.00) [3] |
| --- | --- | --- | --- |
| CC(C)C[C@@H](NC(=O)[C@H](C)NC(=O)[C@H](NC(=O)[C@H](C)NC(=O)CNC(=O)[C@@H](NC=O)C(C)C)C(C)C)C(=O)N[C@H](C(=O)N[C@@H](C(=O)N[C@@H](Cc1c[nH]c2ccccc12)C(=O)N[C@H](CC(C)C)C(=O)N[C@@H](Cc1c[nH]c2ccccc12)C(=O)N[C@@H](C(=O)N[C@@H](Cc1c[nH]c2ccccc12)C(=O)N[C@@H](C(=O)N[C@@H](Cc1c[nH]c2ccccc12)C(=O)NCCO)C(C)C)C(C)C)[C@H](C)O)C(C)C [compound 9487] (For-VGA[dV]A[dL]V[dT]W[dL]W[dV]W[dV]W-NHCH2CH2OH) | 100.0 | - | 1.15 |
| CC(C)C[C@@H](NC(=O)[C@H](Cc1c[nH]c2ccccc12)NC(=O)[C@H](NC(=O)[C@H](Cc1c[nH]c2ccccc12)NC(=O)[C@@H](CC(C)C)NC(=O)[C@H](Cc1c[nH]c2ccccc12)NC(=O)[C@H](NC(=O)[C@@H](NC(=O)[C@H](NC(=O)[C@H](C)NC(=O)[C@H](NC(=O)[C@H](C)NC(=O)CNC(=O)[C@@H](NC=O)C(C)C)C(C)C)C(C)C)C(C)C)C(C)C)C(C)C)C(=O)N[C@@H](Cc1c[nH]c2ccccc12)C(=O)NCCO [compound 9293] (For-VGA[dV]A[dV]V[dV]W[dL]W[dV]W[dL]W-NHCH2CH2OH) | 4.3 | ++ | 1.05 |
| CC(C)C[C@@H](NC(=O)[C@H](C)NC(=O)CNC(=O)[C@@H](NC=O)C(C)C)C(=O)N[C@@H](C)C(=O)N[C@@H](C(=O)N[C@H](C(=O)N[C@@H](C(=O)N[C@@H](Cc1c[nH]c2ccccc12)C(=O)N[C@H](CC(C)C)C(=O)N[C@@H](Cc1c[nH]c2ccccc12)C(=O)N[C@H](CC(C)C)C(=O)N[C@@H](Cc1c[nH]c2ccccc12)C(=O)N[C@H](CC(C)C)C(=O)N[C@@H](Cc1c[nH]c2ccccc12)C(=O)NCCO)C(C)C)C(C)C)C(C)C [compound 9000] (For-VGA[dL]A[dV]V[dV]W[dL]W[dL]W[dL]W-NHCH2CH2OH) | 7.4 | + | 1.21 |
| CNC(=O)C[C@@H](NC(=O)[C@@H](NC(=O)[C@H](NC(=O)[C@H](C)NC(=O)[C@H](NC(=O)[C@H](C)NC(=O)CNC(=O)[C@@H](NC=O)C(C)C)C(C)C)C(C)C)C(C)C)C(=O)N[C@@H](Cc1c[nH]c2ccccc12)C(=O)N[C@H](CC(C)C)C(=O)N[C@@H](Cc1c[nH]c2ccccc12)C(=O)N[C@H](CC(C)C)C(=O)N[C@@H](Cc1c[nH]c2ccccc12)C(=O)N[C@@H](C(=O)N[C@@H](Cc1c[nH]c2ccccc12)C(=O)NCCO)C(C)C [compound 6899] (For-VGA[dV]A[dV]V[dD](NHMe)W[dL]W[dL]W[dV]W-NHCH2CH2OH) | 100.0 | - | 1.12 |
| CC(C)C[C@@H](NC(=O)[C@H](C)NC(=O)[C@H](NC(=O)[C@H](C)NC(=O)CNC(=O)[C@@H](NC=O)C(C)C)C(C)C)C(=O)N[C@H](C(=O)N[C@H](CC(C)C)C(=O)N[C@@H](Cc1c[nH]c2ccccc12)C(=O)N[C@H](CC(C)C)C(=O)N[C@@H](Cc1c[nH]c2ccccc12)C(=O)N[C@@H](C(=O)N[C@@H](Cc1c[nH]c2ccccc12)C(=O)N[C@@H](C(=O)N[C@@H](Cc1c[nH]c2ccccc12)C(=O)NCCO)C(C)C)C(C)C)C(C)C [compound 11280] (For-VGA[dV]A[dL]V[dL]W[dL]W[dV]W[dV]W-NHCH2CH2OH) | 9.9 | - | 1.04 |
| CC(C)C[C@@H](NC(=O)[C@H](C)NC(=O)[C@H](NC(=O)[C@H](C)NC(=O)CNC(=O)[C@@H](NC=O)C(C)C)C(C)C)C(=O)N[C@H](C(=O)N[C@@H](C(=O)N[C@@H](Cc1c[nH]c2ccccc12)C(=O)N[C@@H](C(=O)N[C@@H](Cc1c[nH]c2ccccc12)C(=O)N[C@H](CC(C)C)C(=O)N[C@@H](Cc1c[nH]c2ccccc12)C(=O)N[C@H](CC(C)C)C(=O)N[C@@H](Cc1c[nH]c2ccccc12)C(=O)NCCO)C(C)C)[C@H](C)O)C(C)C [compound 11433] (For-VGA[dV]A[dL]V[dT]W[dV]W[dL]W[dL]W-NHCH2CH2OH) | 51.1 | - | 1.38 |
| CNC(=O)C[C@@H](NC(=O)[C@@H](NC(=O)[C@@H](CC(C)C)NC(=O)[C@H](C)NC(=O)[C@@H](CC(C)C)NC(=O)[C@H](C)NC(=O)CNC(=O)[C@@H](NC=O)C(C)C)C(C)C)C(=O)N[C@@H](Cc1c[nH]c2ccccc12)C(=O)N[C@@H](C(=O)N[C@@H](Cc1c[nH]c2ccccc12)C(=O)N[C@@H](C(=O)N[C@@H](Cc1c[nH]c2ccccc12)C(=O)N[C@H](CC(C)C)C(=O)N[C@@H](Cc1c[nH]c2ccccc12)C(=O)NCCO)C(C)C)C(C)C [compound 11601] (For-VGA[dL]A[dL]V[dD](NHMe)W[dV]W[dV]W[dL]W-NHCH2CH2OH) | 98.9 | - | 1.23 |
| CNC(=O)C[C@@H](NC(=O)[C@@H](NC(=O)[C@@H](CC(C)C)NC(=O)[C@H](C)NC(=O)[C@H](NC(=O)[C@H](C)NC(=O)CNC(=O)[C@@H](NC=O)C(C)C)C(C)C)C(C)C)C(=O)N[C@@H](Cc1c[nH]c2ccccc12)C(=O)N[C@H](CC(C)C)C(=O)N[C@@H](Cc1c[nH]c2ccccc12)C(=O)N[C@H](CC(C)C)C(=O)N[C@@H](Cc1c[nH]c2ccccc12)C(=O)N[C@@H](C(=O)N[C@@H](Cc1c[nH]c2ccccc12)C(=O)NCCO)C(C)C [compound 9229] (For-VGA[dV]A[dL]V[dD](NHMe)W[dL]W[dL]W[dV]W-NHCH2CH2OH) | 100.0 | - | 1.15 |
| CC(C)C[C@@H](NC(=O)[C@H](C)NC(=O)[C@H](NC(=O)[C@H](C)NC(=O)CNC(=O)[C@@H](NC=O)C(C)C)[C@H](C)O)C(=O)N[C@H](C(=O)N[C@H](CC(C)C)C(=O)N[C@@H](Cc1c[nH]c2ccccc12)C(=O)N[C@@H](C(=O)N[C@@H](Cc1c[nH]c2ccccc12)C(=O)N[C@H](CC(C)C)C(=O)N[C@@H](Cc1c[nH]c2ccccc12)C(=O)N[C@@H](C(=O)N[C@@H](Cc1c[nH]c2ccccc12)C(=O)NCCO)C(C)C)C(C)C)C(C)C [compound 6797] (For-VGA[dT]A[dL]V[dL]W[dV]W[dL]W[dV]W-NHCH2CH2OH) | 100.0 | - | 1.02 |
| CC(C)C[C@@H](NC(=O)[C@H](C)NC(=O)[C@H](NC(=O)[C@H](C)NC(=O)CNC(=O)[C@@H](NC=O)C(C)C)C(C)C)C(=O)N[C@H](C(=O)N[C@@H](C(=O)N[C@@H](Cc1c[nH]c2ccccc12)C(=O)N[C@H](CC(C)C)C(=O)N[C@@H](Cc1c[nH]c2ccccc12)C(=O)N[C@H](CC(C)C)C(=O)N[C@@H](Cc1c[nH]c2ccccc12)C(=O)N[C@@H](C(=O)N[C@@H](Cc1c[nH]c2ccccc12)C(=O)NCCO)C(C)C)[C@H](C)O)C(C)C [compound 8984] (For-VGA[dV]A[dL]V[dT]W[dL]W[dL]W[dV]W-NHCH2CH2OH) | 57.9 | - | 1.12 |
| CC(C)C[C@@H](NC(=O)[C@H](C)NC(=O)[C@H](NC(=O)[C@H](C)NC(=O)CNC(=O)[C@@H](NC=O)C(C)C)[C@H](C)O)C(=O)N[C@H](C(=O)N[C@H](CC(C)C)C(=O)N[C@@H](Cc1c[nH]c2ccccc12)C(=O)N[C@@H](C(=O)N[C@@H](Cc1c[nH]c2ccccc12)C(=O)N[C@@H](C(=O)N[C@@H](Cc1c[nH]c2ccccc12)C(=O)N[C@H](CC(C)C)C(=O)N[C@@H](Cc1c[nH]c2ccccc12)C(=O)NCCO)C(C)C)[C@H](C)O)C(C)C [compound 7015] (For-VGA[dT]A[dL]V[dL]W[dT]W[dV]W[dL]W-NHCH2CH2OH) | 100.0 | - | 1.07 |
| CC(C)C[C@@H](NC(=O)[C@H](C)NC(=O)[C@H](NC(=O)[C@H](C)NC(=O)CNC(=O)[C@@H](NC=O)C(C)C)C(C)C)C(=O)N[C@H](C(=O)N[C@@H](C(=O)N[C@@H](Cc1c[nH]c2ccccc12)C(=O)N[C@@H](C(=O)N[C@@H](Cc1c[nH]c2ccccc12)C(=O)N[C@H](CC(C)C)C(=O)N[C@@H](Cc1c[nH]c2ccccc12)C(=O)N[C@@H](C(=O)N[C@@H](Cc1c[nH]c2ccccc12)C(=O)NCCO)C(C)C)C(C)C)[C@H](C)O)C(C)C [compound 9633] (For-VGA[dV]A[dL]V[dT]W[dV]W[dL]W[dV]W-NHCH2CH2OH) | 100.0 | - | 1.06 |
| CC(C)C[C@@H](NC(=O)[C@H](C)NC(=O)CNC(=O)[C@@H](NC=O)C(C)C)C(=O)N[C@@H](C)C(=O)N[C@H](CC(C)C)C(=O)N[C@H](C(=O)N[C@H](CC(C)C)C(=O)N[C@@H](Cc1c[nH]c2ccccc12)C(=O)N[C@@H](C(=O)N[C@@H](Cc1c[nH]c2ccccc12)C(=O)N[C@@H](C(=O)N[C@@H](Cc1c[nH]c2ccccc12)C(=O)N[C@@H](C(=O)N[C@@H](Cc1c[nH]c2ccccc12)C(=O)NCCO)C(C)C)[C@H](C)O)C(C)C)C(C)C [compound 5178] (For-VGA[dL]A[dL]V[dL]W[dV]W[dT]W[dV]W-NHCH2CH2OH) | 100.0 | - | 1.22 |
